In US20260234160A1, “NEW SUBSTITUTED QUINOLINE COMPOUNDS FOR COMBATITNG PHYTOPATHOGENIC FUNGI” (BASF SE, priority 2023, published 2026):

Experiments:
Botrytis cinerea = assay: Activity against the grey mold Botrytis cinerea in the microtiterplate test; assay type: cell-based; conditions: 31 ppm, MTP, 405 nm, 7 days after inoculation
Experimental: The active compounds were formulated separately as a stock solution having a concentration of 10000 ppm in dimethyl sulfoxide.
The stock solutions were mixed according to the ratio, pipetted onto a micro titer plate (MTP) and diluted with water to the stated concentrations. A spore suspension of Botrytis cinerea in an aqueous biomalt or yeast-bactopeptone-sodium acetate solution was then added. The plates were placed in a water vapor-saturated chamber at a temperature of 18° C. Using an absorption photometer, the MTPs were measured at 405 nm 7 days after the inoculation.

Sclerotinia sclerotiorum = assay: Preventative fungicidal control of white mold on oilseed rape caused by Sclerotinia sclerotiorum (green house); assay type: in vivo; conditions: 100 ppm, assessed after 14 days, untreated 100%
Experimental: The compound was dissolved in a mixture of acetone and/or dimethylsulfoxide and the wetting agent/emulsifier Wettol, which is based on ethoxylated alkylphenoles, in a ratio (volume) solvent-emulsifier of 99 to 1 to give a total volume of 5 ml. Subsequently, water was added to total volume of 100 ml.
This stock solution was then diluted with the described solvent-emulsifier-water mixture to the final concentration given in the table below.
Oilseed rapes were grown in pots to the 13 to 14 leaf stage. These plants were sprayed to runoff with previously described spray solution, containing the concentration of active ingredient or their mixture mentioned in the table below.
The plants could air-dry. The next day the applicated rape petals were fixed with 25 μl of 2.5% methylcellulose on leaf 1 and 2. 25 μl of a spore suspension of Sclerotinia sclerotiorum was pipetted on each fixed rape petal. After 14 days at 20° C. and a relative humidity of 60% the extent of fungal attack on the leaves was visually assessed as % diseased leaf area.

Corynespora cassiicola = assay: Activity against Corynespora cassiicola in the microtiterplate test; assay type: cell-based; conditions: 31 ppm, MTP
Experimental: The active compounds were formulated separately as a stock solution having a concentration of 10000 ppm in dimethyl sulfoxide. The stock solutions were mixed according to the ratio, pipetted onto a micro titer plate (MTP) and diluted with water to the stated concentrations. A spore suspension of the Corynespora cassiicola in an aqueous biomalt or yeast-bactopeptone-sodium acetate solution was then added.

Structure (SMILES)	growth of the pathogen (Botrytis cinerea) [%]	growth of the pathogen (% diseased leaf area) (Sclerotinia sclerotiorum)	growth of the pathogen (Corynespora cassiicola) [%]
C[C@@H]1N=C(c2cnc3c(F)cccc3c2)c2ccccc2OC1(C)C [Ex-1, (S)-5-(8-fluoroquinolin-3-yl)-2,2,3-trimethyl-2,3-dihydrobenzo[f][1,4]oxazepane]	0	less than 1%	–
C[C@@H]1N=C(c2cnc3c(F)cccc3c2)c2cccc(F)c2OC1(C)C [Ex-3, (3S)-9-fluoro-5-(8-fluoro-3-quinolyl)-2,2,3-trimethyl-3H-1,4-benzoxazepine]	0	–	–
C[C@@H]1N=C(c2cnc3ccccc3c2)c2cccc(F)c2OC1(C)C [Ex-4, (3S)-9-fluoro-2,2,3-trimethyl-5-(3-quinolyl)-3H-1,4-benzoxazepine]	0	–	1
